melting point: 222.5 to 223.8 °C
Compound: Cn1c(C#N)ccc1-c1ccc2c(c1F)C1(CC1)C(=O)N2 [Example 5, 5-(4′-fluoro-2′-oxospiro[cyclopropane-1,3′-indoline]-5′-yl)-1-methyl-1H-pyrrole-2-carbonitrile]
